Results reported in patent US20070116702A1, “Survival promoting NCAM binding and MCAM ligand binding compounds” (priority 2001, published 2007).

Legend:
[1] = test system: cells presenting NCAM or NCAM ligands; assay: Prevention of cell death (survival) of cells presenting NCAM or NCAM ligands; format: cell-based; conditions: general statement; data only in figures
Method: PC12 cells were differentiated by plating them in 96-well tissue culture plates in defined medium (DMEM) supplemented with NGF (50-100 ng/ml) and were normally used after 6-8 days of NGF treatment. NGF withdrawal was performed as follows: the medium was removed, and the cells were quickly rinsed twice with pre-warmed medium, and then re-fed with DMEM supplemented with C3d. After 2 days of incubation cells were assayed for cell survival by measuring reduction of a novel tetrazolium compound, MTS (Promega, USA), which is bioreduced by cells into a formazan that is soluble in tissue culture medium. The absorbance of the formazan at 490 nm was measured directly from 96 well assay plates without additional processing. The conversion of MTS into the aqueous soluble formazan was accomplished by dehydrogenase enzymes found in metabolically active cells. The quantity of formazan product as measured by the amount of 490 nm absorbance was directly proportional to the number of living cells in culture (Yao and Cooper, 1995; CellTiter 96 Aqueous non-radioactive cell proliferation assay, Promega, 1996; Eilers et al., 1998).
PC12 cells were plated in 96-well tissue culture plates in the absence of growth factors (serum starvation) for 6 days in DMEM supplemented with C3d and assayed for cell survival by reduction of MTS, as described above (Gollapudi and Oblinger, 1999; Williams and Doherty, 1999). […]

cells presenting NCAM = conditions: by activating a signalling pathway identical to that activated by homophilic NCAM binding; cited from earlier work
Hippocampal cells = assay: Aggregate cell cultures of hippocampal cells (aggregates counted after 24 h); format: cell-based, rat; conditions: ligand present during the aggregation of cells; quantified 24 h after seeding
Method: A variety of suitable fragments and variants of NCAM has been discussed above. To be able to identify candidate ligands capable of stimulating NCAM function, where the NCAM function means the function of the NCAM molecule, the inventors have established a simple cell culture system (aggregate cell cultures) that permits a quantitative evaluation of the effect of various ligands. Hippocampal cells are provided from rat embryos. The cells are grown in a defined medium and dissociated cells are seeded in microtiter plates. After 24 h, the, amount of aggregates are counted. Compounds to be tested are added to the cell suspension immediately before seeding of the cells in micro-wells. When NCAM Ig1 binding ligands are present during the aggregation of cells, smaller, but more numerous cell aggregates are seen when quantified 24 h after seeding of the cells. The inhibiting effect of the ligands results in a blockage of the formation of large aggregates from many small aggregates as the adhesion, properties of NCAM are blocked. Thus, small but more numerous cell aggregates are seen in the presence of active ligands.

NCAM Ig1 domain = biological target: T1, NCAM Ig1 domain (Rattus norvegicus, UniProt P13596); assay: Real-time biomolecular interaction analysis (BIAlite surface plasmon resonance), Ig1 applied to immobilised dendrimer peptides; format: binding; conditions: dendrimer peptides immobilised on sensor chip CM5, 25° C., HBS; two independent experiments
T1 construct: The Ig1 domain of NCAM was produced as a recombinant protein in Pichia pastoris; made in house; host or cells: Pichia pastoris strain His 4 GS-115 (pHIL-S1 plasmid)
Text: The Ig1 domain of NCAM was produced as a recombinant protein in Pichia pastoris. The cDNA fragment of rat NCAM was synthesised by PCR, and amplified cDNA was subcloned into an Xho I/Bam HI site of the pHIL-S1 plasmid (Invitrogen Corporation, San Diego, USA). An E. coli strain Top 10 F′ (Invitrogen Corporation, San Diego, USA) was used for transformation. The recombinant plasmid was linearised with Nsi I and used for transformation of Pichia pastoris strain His 4 GS-115 (Invitrogen Corporation, San Diego, USA). Transformation and selection was performed according to a Pichia Expression Kit manual supplied by the manufacturer. The recombinant protein was designated as Ig1 PP (Ig-like domain 1 produced in P. pastoris) The authenticity of Ig1 PP was secured by amino acid sequencing and MALDI-MS confirming the expected molecular weight of 11 kD. Cells were grown essentially according to the Pichia Expression Kit manual. After induction supernatant from growing cells was filtered through a […] filter, concentrated by ultrafiltration and purified by gel filtration using a Sephadex G-50 column (Pharmacia Biotech AB, Sweden) (Thomsen et al., 1996).
Real-time biomolecular interaction analysis was performed using a BIAlite instrument (Pharmacia Biosensor AB, Sweden). All experiments were performed at 25° C. using Hepes buffered saline (HBS: 10 mM Hepes pH 7.4, 150 mM NaCl, 3.4 mM EDTA, 0.005% v/v Surfactant P20 (Pharmacia Biosensor, Sweden) as running buffer. The flow rate was […]. Dendrimer peptides C3d, D3d and D4d (four peptide-monomers coupled to a backbone consisting of three lysines) were immobilised on a sensor chip CM5 (Pharmacia Biosensor AB, Sweden) using the following procedure: the chip was activated by […] 0.05 M N-hydroxysuccinimide, 0.2 M N-ethyl-N′-(dimethylaminopropyl)carbodiimide; peptides were immobilised using […] peptide solution in HBS at a concentration of 60 μg/ml; finally the chip was blocked by 35 μl 1 M ethanolamine hydrochloride pH 8.5. Binding of Ig1 to dendrimer peptides: […] of Ig1 or Ig1I at the indicated concentrations were applied. […]

T1 sequence (P13596 20-111 limits assumed): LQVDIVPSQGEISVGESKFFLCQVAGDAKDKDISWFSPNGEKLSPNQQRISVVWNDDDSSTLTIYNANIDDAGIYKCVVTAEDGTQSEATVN

ASKKPKRNIKA (listed as Homo sapiens) [C3]
preventing cell death [1]: capable of preventing cell death | stimulation of outgrowth (cells presenting NCAM): stimulates outgrowth | inhibition of aggregation of hippocampal cells (Hippocampal cells): inhibited aggregation

D4d: Dendrimer of D4: four peptide-monomers coupled to a backbone consisting of three lysines (ARALNWGAKPK)
binding to the NCAM Ig1 domain (NCAM Ig1 domain): bind to the NCAM Ig1 domain

D3d: Dendrimer of D3: four peptide-monomers coupled to a backbone consisting of three lysines (AKKERQRKDTQ)
binding to the NCAM Ig1 domain (NCAM Ig1 domain): bind to the NCAM Ig1 domain

C3d: Dendrimer of C3: four peptide-monomers coupled to a backbone consisting of three lysines (ASKKPKRNIKA)
binding to the NCAM Ig1 domain (NCAM Ig1 domain): bind to the NCAM Ig1 domain
